Literature values as cited in patent publication US20190209502A1, “COMBINATION GEL FOR SEXUALLY TRANSMITTED INFECTIONS” (EVOFEM, INC., priority 2016, published 2019).

System: HIV
Details: compared with D or racemic lactic acid

For `C[C@H](O)C(=O)O` [L form of lactic acid, L-(+)-lactic acid], the “potency in inactivating HIV” value is listed as “more potent in inactivating HIV than D or racemic lactic acid”.
